We go through six compounds from patent US12162881B2, “Forms and compositions of inhibitors of JAK2” (Ajax Therapeutics, Inc., priority 2021, dated 2024).

The structures appear in SMILES notation. Where only a bound is given, the exact number is not on record here.

The nature of series [1]: Variable relative humidity XRPD (VRH-XRPD). The series is classed as physicochemical. The protocol:
XRPD patterns were collected with a PANalytical X'Pert PRO MPD diffractometer using an incident beam of Cu Kα radiation produced using a long, fine-focus source and a nickel filter. The diffractometer was configured using the symmetric Bragg-Brentano geometry. Data were collected and analyzed using Data Collector software v. 5.5. Prior to the analysis, a silicon specimen (NIST SRM 640f) was analyzed to verify the observed position of the Si 111 peak is consistent with the NIST-certified position. A specimen of the sample was packed in a nickel-coated copper well. Antiscatter slits (SS) were used to minimize the background generated by air. Soller slits for the incident and diffracted beams were used to minimize broadening from axial divergence. Diffraction patterns were collected using a scanning position-sensitive detector (X'Celerator) located 240 mm from the sample and Data Collector software v. 5.5.
An Anton Paar temperature-humidity chamber (THC) was used while collecting in-situ XRPD patterns as a function of humidity. The temperature of the specimen was changed with a Peltier thermoelectric device located directly under the specimen holder and monitored with a platinum-100 resistance sensor located in the specimen holder. The thermoelectric device was powered and controlled by an Anton Paar TCU 50 interfaced with Data Collector. The humidity was generated with an RH-200 manufactured by VTI Inc. and carried by a flow of nitrogen gas. The humidity was monitored by a HygroClip sensor manufactured by Rotronic located next to the specimen inside the THC.
VRH-XRPD analysis was conducted to help determine water activity boundary for the solid-state conversion between hydrated Form A and anhydrous Form B. This method was utilized due the observed high tendency of Compound 1 to form solvates, which precluded the use of solvent-mediated approach.
Overall, two VRH-XRPD experiments were conducted to qualitatively evaluate RH conditions leading to predominance of Form A over Form B and vice versa. The kinetic component was not assessed.
The first VRH-XRPD experiment was conducted with a goal of observing dehydration of hydrated Form A. An initial XRPD scan was, therefore, acquired on Form A equilibrated in-situ at ambient RH for 45 minutes, which at the time of the analysis was ˜30%. The XRPD pattern from this scan was consistent with Form A (FIG. 39, top).
XRPD patterns were collected throughout the course of the experiment, each with a 10 minute scan.
XRPD patterns were collected throughout the course of the experiment, each with a 10 minute scan. The XRPD patterns remained Form B until the RH reached approximately 60% RH, where Form A became the primary phase with some Form B remaining (FIG. 41, top two spectra). Further decrease of Form B was observed through the remainder of the 60% RH hold at which point the experiment ended (FIG. 41, bottom two spectra). Complete conversion to Form A from Form B was not observed under these conditions.

Series [2] can be described thus: Disproportionation of Compound 2 (HCl salt) stirred in water. In kind it is physicochemical. The following applies: Form A obtained by disproportionation of Compound 2 in water (Example 11). The protocol: An exemplary procedure for preparing Compound 1 Form A is as follows: Compound 1 Lot II (459.1 mg) was slurried in THF (4 mL). Concentrated HCl (154 μL, 2 equiv.) was added to the slurry. The off-white slurry rapidly changed to a yellow slurry. The slurry was stirred at ambient temperature for 1 day. Solids were collected by vacuum filtration and briefly dried under vacuum. The yellow material, assumed to be an HCl salt, was collected by vacuum filtration. The material (543.2 mg) was then suspended in H2O (5 mL) and stirred at ambient temperature for 2 days. Pale yellow solids were collected by vacuum filtration but appeared to still contain some HCl salt by XRPD. Solids were re-slurried in H2O (1 mL) at ambient temperature for additional 3 days. The off-white solids were collected by vacuum filtration and dried on filter until solids were no longer visibly damp.

Series [3] is described as follows: Drying experiments of solvated Compound 1 materials (vacuum oven, XRPD). In kind it is physicochemical. The following applies: vac., 1 d. As for the experimental part:
Drying experiments: Damp and solvated Compound 1 materials were placed in vacuum ovens set to ambient temperature or 80° C. for 1 day. Dried solids were analyzed by XRPD.

Series [4] has as its target T1, JAK2 (JH1domain-catalytic, Y1007F,Y1008F) kinase (Homo sapiens, UniProt O60674, Y1007F/Y1008F).
T1 construct: JAK2 (JH1domain-catalytic, Y1007F,Y1008F) kinase was expressed as N-terminal fusion; made in house; host or cells: transiently transfected HEK293 cells
The series is described as follows: JAK2 Binding Assay. The conditions noted are these: Compound 1 as prepared by Example 1. The protocol: JAK2 (JH1domain-catalytic, Y1007F,Y1008F) kinase was expressed as N-terminal fusion to the DNA binding domain of NFkB in transiently transfected HEK293 cells and subsequently tagged with DNA for qPCR detection. Streptavidin-coated magnetic beads were treated with biotinylated small molecule ligands for 30 minutes at room temperature to generate affinity resins for kinase assays. The liganded beads were blocked with excess biotin and washed with blocking buffer (SeaBlock (Pierce), 1% BSA, 0.05% Tween 20, 1 mmol/L DTT) to remove unbound ligand and to reduce nonspecific phage binding. Binding reactions were assembled by combining kinases, liganded affinity beads, and test compounds in 1× binding buffer (1×PBS, 0.05% Tween 20, 0.1% BSA, 1 mmol/L DTT). Test compound was prepared as 111× stocks in 100% DMSO and directly diluted into the assay wells. All reactions were performed in polypropylene 384-well plates in a final volume of 0.02 mL. The assay plates were incubated at room temperature with shaking for 1 hour and the affinity beads were washed with wash buffer (1×PBS, 0.05% Tween 20). The beads were then re-suspended in elution buffer (1×PBS, 0.05% Tween 20, 0.5 μmol/L non-biotinylated affinity ligand) and incubated at room temperature with shaking for 30 minutes. The kinase concentration in the eluate was measured by qPCR.

Series [5] is described as follows: Relative humidity jar experiments (XRPD). In kind it is physicochemical. As for the experimental part: Relative humidify jar experiments: Solid Compound 1 was placed in relative humidity jars containing saturated solutions of various salts to maintain a desired relative humidity level at 25° C. One sample of Compound 1 was placed in a jar containing P205 in an effort to maintain 0% RH.

T1 sequence (O60674 849-1124 Y1007F/Y1008F limits assumed): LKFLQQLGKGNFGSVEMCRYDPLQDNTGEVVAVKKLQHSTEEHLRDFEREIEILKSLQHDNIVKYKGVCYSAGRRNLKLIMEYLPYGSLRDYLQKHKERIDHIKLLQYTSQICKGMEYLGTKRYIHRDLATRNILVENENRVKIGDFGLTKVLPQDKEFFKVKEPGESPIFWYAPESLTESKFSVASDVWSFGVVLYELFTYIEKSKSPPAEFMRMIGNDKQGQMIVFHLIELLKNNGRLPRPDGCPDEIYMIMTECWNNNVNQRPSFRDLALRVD

For the compound `CC(=O)Nc1cc(Oc2cnc3nc(Nc4cc(C(F)(F)F)cn(C)c4=O)n(C)c3c2C#N)ccn1` [Compound 1 Form A, N-(4-((7-cyano-1-methyl-2-((1-methyl-2-oxo-5-(trifluoromethyl)-1,2-dihydropyridin-3-yl)amino)-1H-imidazo[4,5-b]pyridin-6-yl)oxy)pyridin-2-yl)acetamide], the “RH at which a small amount of Form B became visible” value in series [1] (Experiment 1, RH incrementally decreased from ~85%) is given as “approximately 21 % RH”. For the same compound, in series [1] (Experiment 1, decreasing RH), the “RH at which Form A was no longer visible” value is recorded as around 5 % RH and the “RH at which Form B became the predominant phase” value is 11 % RH. Also, the “RH at which dehydration is expected to begin” value in series [1] (VRH-XRPD and DVS data combined) came out at 20 % RH. For the same compound, in series [1] (overnight (17 h) hold under nitrogen stream (~0% RH)), the “Form change on hold under nitrogen stream” value was “converted to Form B”. Also, the “Stability relative to Compound 2” value in series [2] was “superior stability”.

For the compound `CC(=O)Nc1cc(Oc2cnc3nc(Nc4cc(C(F)(F)F)cn(C)c4=O)n(C)c3c2C#N)ccn1` [Compound 1 Form D, N-(4-((7-cyano-1-methyl-2-((1-methyl-2-oxo-5-(trifluoromethyl)-1,2-dihydropyridin-3-yl)amino)-1H-imidazo[4,5-b]pyridin-6-yl)oxy)pyridin-2-yl)acetamide], the “XRPD Result after drying” value in series [3] (80° C.) is on record as “Form D + peaks (some disorder)”; in series [3] (RT, listed as Form D), “Form D^a”.

As for `CC(=O)Nc1cc(Oc2cnc3nc(Nc4cc(C(F)(F)F)cn(C)c4=O)n(C)c3c2C#N)ccn1` [Compound 1 Form E, N-(4-((7-cyano-1-methyl-2-((1-methyl-2-oxo-5-(trifluoromethyl)-1,2-dihydropyridin-3-yl)amino)-1H-imidazo[4,5-b]pyridin-6-yl)oxy)pyridin-2-yl)acetamide], the “XRPD Result after drying” value in series [3] (RT, listed as Form E) is “Form H (some disorder)”.

For the compound `CC(=O)Nc1cc(Oc2cnc3nc(Nc4cc(C(F)(F)F)cn(C)c4=O)n(C)c3c2C#N)ccn1` [Compound 1 Form F, N-(4-((7-cyano-1-methyl-2-((1-methyl-2-oxo-5-(trifluoromethyl)-1,2-dihydropyridin-3-yl)amino)-1H-imidazo[4,5-b]pyridin-6-yl)oxy)pyridin-2-yl)acetamide], the “XRPD Result after drying” value in series [3] (RT, listed as Form F) is “Form F”.

In the case of `CC(=O)Nc1cc(Oc2cnc3nc(Nc4cc(C(F)(F)F)cn(C)c4=O)n(C)c3c2C#N)ccn1` [Compound 1 Form G, N-(4-((7-cyano-1-methyl-2-((1-methyl-2-oxo-5-(trifluoromethyl)-1,2-dihydropyridin-3-yl)amino)-1H-imidazo[4,5-b]pyridin-6-yl)oxy)pyridin-2-yl)acetamide], in series [3] (RT, listed as Form G), the “XRPD Result after drying” value was “Form B + peaks (some disorder)”.

By Kd is commonly meant a measure of binding affinity in units of concentration. A low value points to a tighter complex. `CC(=O)Nc1cc(Oc2cnc3nc(Nc4cc(C(F)(F)F)cn(C)c4=O)n(C)c3c2C#N)ccn1` [Compound 1, N-(4-((7-cyano-1-methyl-2-((1-methyl-2-oxo-5-(trifluoromethyl)-1,2-dihydropyridin-3-yl)amino)-1H-imidazo[4,5-b]pyridin-6-yl)oxy)pyridin-2-yl)acetamide]: the dissociation constant Kd in series [4] was below 10 nM. Moreover, the “XRPD Results after RH stress” value in series [5] (23% RH, RT, 6 d) is reported as “B + minor A”; in series [5] (43% RH, RT, 6 d), “A + B”; in series [5] (54% RH, RT, 6 d) it was “A + B”; in series [5] (P2O5 jar, 0% RH RT, 12 d) it was “B + peaks”.
